Measured values as given in patent publication US10947260B2, “Phosphinolactone derivatives and pharmaceutical uses thereof” (INSTITUT NATIONAL DE LA SANTE ET DE LA RECHERCHE MEDICALE …, priority 2016, dated 2021).

System: APPSwe mice
Test: Biochemical analyses in hippocampus of APPSwe mice
Format: in vivo
Details: 1 mg/kg/j IP
Experimental: FIG. 12: Biochemical analyses of the effect of treatments with compound 3b (a) or 3c (b) in the hippocampus of APPSwe mice. Oxidative stress was measured via the level of peroxidation of membrane lipids at (a), or DCF fluorescence at (b). The expression levels of synaptophysin, Bax, IL1β and TNFα were measured using commercial Elisa kits. The values are given as % of the control group WT/V. N=6-8 per group. *p<0.05, **p<0.01 compared with group WT/V; #p<0.05, ##p<0.01 compared with group APPSwe/V; Student t-test.
After sacrifice, the hippocampus and brain cortex of the mice were dissected and frozen to −80° C. until use. The accumulation of reactive oxygen species was measured by fluorescence of 2′,7′-dichlorofluorescein (DCF) in the hippocampus of the mice ex vivo. DCF diacetate (0.5 μM) (Sigma-Aldrich) was added to SDS-soluble fractions of hippocampus extract. After 30 min at 37° C., DCF fluorescence was quantified (excitation at 485 nm, emission at 530 nm) in a Fluoroskan Ascent spectrofluorometer (Thermo Scientific, Waltham, USA), and normalized with the protein concentrations of the extracts.
Peroxidation of membrane lipids was measured using the cumene/xylenol method. The hippocampi were homogenized in methanol (1:10), centrifuged at 1 000 g for 5 min and the supernatant collected. Aliquots were added to a solution containing 1 mM FeSO4, 0.25 m H2SO4, 1 mM xylenol orange and incubated for 30 min at ambient temperature. Absorbance was measured at 580 nm (A5801), then 10 μl of 1 mM cumene hydroperoxide (CHP) was added and the sample incubated 30 min at ambient temperature. Absorbance was measured at 580 nm (A5802). Lipid peroxidation level was determined as CHP equivalents: CHP eq.=A5801/A5802×[CHP (nmol)]×dilution, and calculated in CHP eq. per tissue weight expressed as % of the control group.
Various biochemical parameters were analysed in the hippocampus of APPSwe mice after treatments with 3b, 2 mg/kg/j IP, or 3c, 1 mg/kg/j IP (FIG. 12).

Q: Which results are given for `CC1(C)COP(=O)(c2ccc(Cl)cc2)C(C)(C)N1` (racemic) [Compound 3c, (±)-2-(4-Chlorophenyl)-2-oxo-3,3,5,5-tetramethyl-[1,4,2]-oxazaphosphinane]?
A: IL1β level, hippocampus: not; expression of Bax, hippocampus: caused a decrease; oxidative stress (DCF fluorescence), hippocampus: not; synaptophysin level, hippocampus: not
